Patent US7074925B1, “N-substituted derivatives of 5-oxyiminobarbituric acid” (priority 1998, dated 2006)
Marks after values point to notes of the source that are not given here.

How the values were obtained:
C.trachomatis D323 = test: Action on Chlamydia trachomatis in cell culture; type: cell-based; conditions: 100 mg/l; for Number of unchanged cells: 48 hours, counted in 100 visual fields, cell control 8.000, infected cells 6.000
Procedure: The antimicrobial activity of the claimed compounds was studied relative to C.trachomatis […], which is a standard strain from the collection of the chair of microbiology of St. Petersburg State Pavlov Medical University. […] Cell cultures McCoy and L929 obtained from the Institute of Cytology of RAS were used in this work. Cells were grown in flasks made of neutral glass in the medium RPMI-1640 with the addition of 10% of fetal calf serum. The test was performed in glass (non-toxic) flat-bottom flasks with cover glasses. The cells were introduced into the medium in the final concentration of […]. […] Simultaneously, tested compounds in a final concentration of 100 mg/l were added to the cells. The sample was centrifuged at 2400 G during 60 minutes at room temperature and incubated at 37° C. for 2 hours. […] The samples were doubled using the medium without cycloheximide so as to exclude its effect on the investigated compounds. The samples were incubated in a CO2-incubator for 48 hours. […] The effect of the action of substance was determined by analysis of the monolayer state and number of cells with CPI when compared with the control (cell culture infected with C.trachomatis […]); in doing so, the number of unchanged cells, that were counted in 100 visual fields obtained using the special net of the microscope eyepiece, was taken into consideration. […] Control of cell culture: morphology of cells and state of monolayer correspond to the given type of the cells; control of chlamydia growth in the cell culture: presence of CPI in the monolayer; control of action of standard antimicrobial agent: reduction of number of CPI in the monolayer as compared to the previous control; control of toxicity of the claimed compounds: toxicity is absent; control of action of solvents: toxic action on cells is absent.

[1] = tested on: primary culture of human lymphocytes (IFN-α production); test: Interferon-inducing activity in primary culture of human lymphocytes; type: cell-based
Procedure: Interferon synthesis induction caused by the claimed compounds was conducted on a primary culture of human lymphocytes (it is these cells in a human organism that are the main producers of interferons). To obtain lymphocyte culture, fresh blood (within 12 hours after sampling) from healthy donors (not of group II) was used. To separate lymphocytes, heparinized blood obtained from healthy donor was centrifuged in a density gradient of ficoll-verografin of […] in order to extract a fraction of immunocompetent cells. This fraction was selected and diluted with the nutrient medium RPMI-1640, containing 5% of fetal calf serum, 0.3 mg/ml of L-glutamin, 100 un/ml of penicillin, and […] of streptomycin. The concentration of lymphocytes was considered after dying them with methylene blue and calculation of cell number in Goryaev chamber. Initial solutions of the claimed compounds were diluted with the nutrient medium RPMI-1640 so that the final concentrations of the compounds, which were obtained after introduction of lymphocyte suspension, constituted the raw: 100 μg/ml, 10 μg/ml, 1 μg/ml. The final concentration of lymphocytes in the induction mixture was 3×10^6 cell/ml.
In parallels to the test samples the following controls were done: • 1). Control of spontaneous production of interferons (IFN) by lymphocytes. • 2). […] Control of spontaneous production of interferons in presence of DMSO taken in an amount corresponding to the test samples.
Control and test samples were incubated for 24 hours at the temperature of 37° C. After incubation, the samples were centrifuged at 2,000 G to deposit cell elements, and IFN-containing supernatant was separate out of samples; then the supernatant was analyzed for the quantitative content of IFN. Cell deposition was resuspended in the previous volume of nutrient medium, coloured with vital dye trypan blue, and cell number was counted in the Goryaev chamber (as described above) to determine cytotoxic action of the compounds. The quantitative determination of content of IFN in control and test samples was conducted using the immunoenzyme test system Pro Con IF2 Plus, that is intended for determination of IFN-α, which is produced by TOO “Protein contour”. The solid-phase immunoenzyme method, utilizing horse radish peroxidase as an indicator enzyme, was used to determine the quantity of interferon in the samples. Activity of the bonded peroxidase was measured using an automatic photometer for microplates with a microprocessor at the wavelength of 450 nm.
Based on the obtained results, a calibrating curve was formed, which allows to obtain data expressed in international units (IU) of activity, using the microprocessor of the automatic photometer. The results of the analysis are expressed in IU of activity of IFN per ml in the given induction system, which contains 3×10^4 lymphocyte/ml. Each test and control point was investigated in four parallels.
Controls of immunoenzyme reaction: • 1. Control of DMSO with a nutrient medium. • 2. Control of system components (according to an instruction).
The obtained data were undergone a statistical analysis using t-criterion, and calculation of the confident interval of probability at p=0.05 was carried out. Coincidence of results in the parallel tests was analyzed.

[2] = Hypoglycemic activity after glucose load; type: in vivo, mice; conditions: Glibenclamide I mg/kg
Procedure: Test substance (100 mg/kg) was perorally administrated to fasted mice, and, immediately after that, solution of glucose (1000 mg/kg) was administrated subcutaneously. Glucose content in blood was determined in a hour by the orthotoluidine method. Reducing of glucose level by more than 20% relative to control animals indicated hypoglycemic properties. Glibenclamide (I mg/kg) was utilized as a reference agent.

[3] = tested on: Human's platelet aggregation; test: Antiaggregational properties, ADP-induced platelet aggregation; type: cell-based; conditions: Homo sapiens, Platelet, ADP 2.5 μmol/l
Text: Human's platelet aggregation was investigated in plasma of healthy 50±3 years donors that was enriched by thrombocytes, by means of aggregometer FRM-1. […] Magnitude of a maximum non-reversible platelet aggregation in the control samples (solvent) was adopted as 100%, and that in tested samples was counted as the percentage compared to the control.

[4] = tested on: Herpes virus of the type I (HSV-I/Leningrad/248/88); test: Effect on Herpes virus, cytopathogenic action on Vero cells; type: cell-based, Herpes Simplex virus; conditions: for Quantity of the unchanged cells (number of cells in 100 visual fields): Vero cells, 36 hours, cell control 10000; for percentage of protection of cells from virus: compared to the control of cell culture
Procedure: An antiviral activity was determined with respect to Herpes virus of the type I (HSV-I/Leningrad/248/88) by means of commonly accepted method. Viruses were grown on a continuous culture of Vero cells that have been received from the Bank of Cell Cultures of the Institute of Cytology of the Russian Academy of Science.
A virus in a final concentration of […] and the claimed compounds dissolved in DMSO in final concentrations of 100, 10 and 1 mg/l were added to cells that were grown on the RPMI-1640 medium with 10% fetal calf serum and placed into wells of the 96-well plate. 5 separate wells were used for each of tested concentrations of an agent. The plate was incubated during 60 minutes at 38° C. in a CO2-incubator. After the incubation, the virus was removed and then a fresh medium containing claimed compounds in used concentrations was again introduced.
Results were evaluated basing on presence of cytopathogenic action on the cells after 36 hours of incubation at 38° C. in the CO2-incubator.
The next controls were used in the experiment: • 1. Control of cell culture (capability to grow properly) • 2. Control of the virus (evaluation of capability for reproduction) • 3. Control of an antiviral activity of an antiviral drug Acyclovir • 4. Control of compounds (toxicity of compounds) • 5. Control of a solvent (DMSO) for toxicity.
To estimate a cytopathic action of the virus, a quantity of the unchanged cells was calculated in 100 visual fields formed by a special net of an eyepiece of the inverted microscope.

[5] = Antiulcerous action, water immersion stress with immobilization; type: in vivo, rats; conditions: 20 mg/kg perorally
Procedure: Antiulcerous activity of substances was tested on a model of experimental water immersion stress with immobilization. […] After that, gastric mucous membrane was investigated, number and sizes of ulcers were counted, ulceration index was determined (an average sum of ulcer lengths per one animal in a group).

| Compound | percentage of cell protection from infection (C.trachomatis D323) | Number of unchanged cells (C.trachomatis D323) | Content of IFN in induction mixture after 24-hour incubation ([1]; substance 1 mg/l) | Content of IFN in induction mixture after 24-hour incubation ([1]; substance 10 mg/l) | Content of IFN in induction mixture after 24-hour incubation ([1]; substance 100 mg/l) | Quantity of the unchanged cells (number of cells in 100 visual fields) ([4]; compound 100 μg/ml) | percentage of protection of cells from virus ([4]; compound 100 μg/ml) | further results |
| --- | --- | --- | --- | --- | --- | --- | --- | --- |
| C=CCN1C(=O)C(=NO)C(=O)NC1=S [XXXIX] | (65%) | 7.300 |  |  |  |  |  |  |
| CC(Cc1ccccc1)N1C(=O)NC(=O)C(=NO)C1=O (stereo not drawn) [XVII] | (35%) | 6.700 | 6.2 ± 0.5 IU/3 × 10^4 lymph./ml | 13.0 ± 2.5 IU/3 × 10^4 lymph./ml | 19.2 ± 1.2 IU/3 × 10^4 lymph./ml |  |  |  |
| O=C1NC(=O)N(c2cccc3ccccc23)C(=O)C1=NO [XXXIV] | (35%) | 6.700 |  |  |  |  |  |  |
| O=C1NC(=O)N(CCC2=CCCCC2)C(=O)C1=NO [X] |  |  | 8.6 ± 1.0 IU/3 × 10^4 lymph./ml | 11.0 ± 1.2 IU/3 × 10^4 lymph./ml | 30 ± 1.8 IU/3 × 10^4 lymph./ml |  |  |  |
| COc1ccc(Cl)cc1C(=O)NCCc1ccc(S(=O)(=O)NC(=O)NC2CCCCC2)cc1 [Glibenclamide, reference compound] |  |  |  |  |  |  |  | % change of glucose relative to glucose control [2]: −40%; Glucose in blood ([2]; glucose 1000 mg/kg s.c., after one hour): 4.95 ± 0.31 mmol/L |
| Nc1ncnc2c1ncn2[C@@H]1O[C@H](CO)[C@@H](O)[C@H]1O [Adenosine, reference compound] |  |  |  |  |  |  |  | inhibition at 5 µg/mL ([3]; 5 μg/ml): 100% |
| O=C1NC(=O)N(CCc2ccc(F)cc2)C(=O)C1=NO [XV] |  |  |  |  |  | 4000 | (40%) |  |
| Nc1nc2c(ncn2COCCO)c(=O)[nH]1 [Acyclovir, reference compound] |  |  |  |  |  |  |  | Quantity of the unchanged cells (number of cells in 100 visual fields) ([4]; Acyclovir): 8000*; percentage of protection of cells from virus ([4]; Acyclovir): (80%)** |
| Cc1ccccc1N1C(=O)NC(=O)C(=NO)C1=O [XX] |  |  |  |  |  | 3500 | (35%) |  |
| CN(C)CCCN1c2ccccc2Sc2ccc(Cl)cc21 [Chlorpromazine, reference compound] |  |  |  |  |  |  |  | % of animals with ulcers ([5]; rats, 4 hours stress, control 100): 33%; % of reducing number of ulcers ([5]; versus control): −96%; % of reducing ulceration index ([5]; versus control): −97%; Number of lesions ([5]; control 8.3 ± 2.5): 0.3 ± 0.3; ulceration index ([5]; control 10.5 ± 5.7): 0.3 ± 0.3 |
| CCOc1ccc(N2C(=O)NC(=O)C(=NO)C2=O)cc1 [XXX] | (35%) | 6.700 |  |  |  | 3000 | (30%) |  |
| O=C1NC(=O)N(Cc2ccc(F)cc2)C(=O)C1=NO [XII] | (30%) | 6.600 |  |  |  | 4000 | (40%) |  |
| COc1ccc(CN2C(=O)NC(=O)C(=NO)C2=O)cc1 [XIII] | (50%) | 7.000 |  |  |  | 4500 | (45%) |  |
| CCN1C(=O)C(=NO)C(=O)NC1=S [XXXVI] |  |  | 5.2 ± 1.0 IU/3 × 10^4 lymph./ml | 6.8 ± 1.5 IU/3 × 10^4 lymph./ml | 26.0 ± 1.4 IU/3 × 10^4 lymph./ml |  |  |  |
| O=C1NC(=O)N(Cc2ccccc2)C(=O)C1=NO [XI] |  |  | 32.8 ± 1.0 IU/3 × 10^4 lymph./ml | 53.5 ± 1.2 IU/3 × 10^4 lymph./ml | 60 ± 1.8 IU/3 × 10^4 lymph./ml | 3500 | (35%) |  |
| CC(C)(C)N1C(=O)NC(=O)C(=NO)C1=O [III] | (50%) | 7.000 | 4.2 ± 0.8 IU/3 × 10^4 lymph./ml | 23.5 ± 1.2 IU/3 × 10^4 lymph./ml | 65 ± 1.2 IU/3 × 10^4 lymph./ml | 5000 | (50%) |  |
| CC(=O)Oc1ccccc1C(=O)O [Aspirin, aspirin, reference compound] |  |  |  |  |  |  |  | inhibition at 9 µg/mL ([3]; 9 μg/ml): 100% |
| O=C1NC(=S)N(c2ccc(Cl)cc2)C(=O)C1=NO [XLVI] |  |  | 6.6 ± 0.8 IU/3 × 10^4 lymph./ml | 24.4 ± 1.4 IU/3 × 10^4 lymph./ml | 52.1 ± 1.8 IU/3 × 10^4 lymph./ml |  |  |  |
